Reference: article PMC3038857, “Using Nuclear Receptor Activity to Stratify Hepatocarcinogens” (PLoS ONE, 2011)

Experiments:
PPARg (PPARG) = target: T1, PPARg (PPARG) (Homo sapiens, UniProt P37231); assay: NCGC_PPARg_Agonist: GAL4 BLAM Reporter gene assay: PPARg; assay type: cell-based; set-up: expressed in transfected cells; host or cells: HEK293; conditions: agonist mode
T1 sequence (P37231 1-505): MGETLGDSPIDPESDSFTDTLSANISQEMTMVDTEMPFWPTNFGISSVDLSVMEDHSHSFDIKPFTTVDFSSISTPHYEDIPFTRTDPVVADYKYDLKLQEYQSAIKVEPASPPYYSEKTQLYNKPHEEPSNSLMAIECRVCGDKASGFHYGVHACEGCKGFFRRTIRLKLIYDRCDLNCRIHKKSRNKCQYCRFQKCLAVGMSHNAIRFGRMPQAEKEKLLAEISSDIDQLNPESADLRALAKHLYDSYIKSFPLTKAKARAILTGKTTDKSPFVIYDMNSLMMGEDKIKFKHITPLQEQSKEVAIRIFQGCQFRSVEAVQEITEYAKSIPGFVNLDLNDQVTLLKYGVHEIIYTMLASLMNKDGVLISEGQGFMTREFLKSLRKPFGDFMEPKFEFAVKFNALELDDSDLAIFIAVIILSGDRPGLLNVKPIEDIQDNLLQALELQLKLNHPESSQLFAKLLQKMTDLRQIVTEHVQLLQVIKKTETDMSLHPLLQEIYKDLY
Experimental: (§1) These assays measure binding constants and enzyme inhibition values for nuclear receptors. The targets include [drawing 67] , [drawing 68] , [drawing 69] , [drawing 70] , [drawing 71] , [drawing 72] , [drawing 73] , [drawing 74] , [drawing 75] and [drawing 76] . Each of the nuclear receptor targets was measured in agonist mode. Assays were run at the NIH Chemical Genomics Center (Rockville, MD).
(§2) Cell-based HTS Assays: These assays measuring binding constants and enzyme inhibition values for nuclear receptors. The targets include AR, ER, FXR, LXR, PPARα, PPARδ, PPARγ, RXRα, RXRβ and PXR. Each of the nuclear receptor targets was measured in both agonist and antagonist mode, but the antagonist data is still undergoing analysis due to possible interference between cytotoxicity and assay activity, so antagonist mode data were not used in the present analysis. Assays were run at the NIH Chemical Genomics Center (Rockville, MD) as part of the Tox21 collaboration. […] The R^2 was required to be ≥0.5. Values where only the highest concentration exceeded 50% activity were excluded to eliminate weak or false positives. Detailed description of the methods, data and analysis methods for this dataset will be presented in a separate publication.

PXR Human (NR1I2) = target: T2, PXR Human (NR1I2) (Homo sapiens, UniProt O75469); assay: NCGC_PXR_Agonist_human: GAL4 BLAM Reporter gene assay: PXR Human; assay type: cell-based; conditions: agonist mode
T2 sequence (O75469 146-434 limits assumed): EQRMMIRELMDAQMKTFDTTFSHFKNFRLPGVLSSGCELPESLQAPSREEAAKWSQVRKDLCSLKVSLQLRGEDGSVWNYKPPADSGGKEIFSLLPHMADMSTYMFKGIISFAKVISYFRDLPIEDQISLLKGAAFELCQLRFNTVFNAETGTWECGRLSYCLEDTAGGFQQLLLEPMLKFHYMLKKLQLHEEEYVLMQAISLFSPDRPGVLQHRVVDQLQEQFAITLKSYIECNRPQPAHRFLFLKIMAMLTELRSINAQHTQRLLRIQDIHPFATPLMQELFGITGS
Procedure, shortened: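 Cell-based GAL4 beta-lactamase reporter assays run at NIH Chemical Genomics Center as part of Tox21. Curve fits required R^2 ≥0.5; values where only the highest concentration exceeded 50% activity were excluded.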

PXR (NR1I2) = target: T3, PXR (NR1I2) (Homo sapiens, UniProt O75469); assay: NVS_NR_hPXR: Human PXR Fluormone PXR (SXR) green (cell-free HTS); assay type: binding
T3 sequence (O75469 1-434): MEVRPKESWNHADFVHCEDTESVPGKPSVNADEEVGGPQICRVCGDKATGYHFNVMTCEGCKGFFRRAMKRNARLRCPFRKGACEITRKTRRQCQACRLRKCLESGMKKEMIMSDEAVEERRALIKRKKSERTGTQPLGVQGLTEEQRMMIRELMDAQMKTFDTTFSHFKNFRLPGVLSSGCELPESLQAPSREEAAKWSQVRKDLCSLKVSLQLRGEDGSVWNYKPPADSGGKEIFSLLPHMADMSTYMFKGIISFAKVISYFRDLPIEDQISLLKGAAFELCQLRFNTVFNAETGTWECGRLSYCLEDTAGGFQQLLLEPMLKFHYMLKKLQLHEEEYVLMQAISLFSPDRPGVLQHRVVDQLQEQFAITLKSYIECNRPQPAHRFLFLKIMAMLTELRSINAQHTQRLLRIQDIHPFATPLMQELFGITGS
Procedure, shortened: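 Responses were normalized to same-plate solvent controls as percent of neutral control. AC50 values came from Hill-equation fits of concentration-response curves.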

CAR (NR1I3) = target: T4, CAR (NR1I3) (Homo sapiens, UniProt Q14994); assay: ATG_PBREM_CIS: Factorial reporter gene assay (HepG2); assay type: cell-based; set-up: endogenous in cells; host or cells: HepG2; conditions: HepG2 reporter
T4 sequence (Q14994 1-352): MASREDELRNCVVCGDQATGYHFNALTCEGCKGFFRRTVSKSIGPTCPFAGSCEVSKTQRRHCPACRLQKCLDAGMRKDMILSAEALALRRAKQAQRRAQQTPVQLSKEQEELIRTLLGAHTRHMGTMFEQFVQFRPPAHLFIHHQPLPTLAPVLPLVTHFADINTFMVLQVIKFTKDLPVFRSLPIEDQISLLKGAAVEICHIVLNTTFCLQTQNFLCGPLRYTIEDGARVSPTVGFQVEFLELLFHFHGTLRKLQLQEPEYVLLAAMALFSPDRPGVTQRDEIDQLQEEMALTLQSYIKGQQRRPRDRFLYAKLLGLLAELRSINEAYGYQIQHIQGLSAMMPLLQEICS
Experimental: A multiple reporter transcription unit (MRTU) library consisting of 48 transcription factor binding sites was transfected into the HepG2 human liver hepatoma cell line. In addition to the cis-acting reporter genes (CIS), a modification of the approach was used to generate a trans-system (TRANS) with a mammalian one-hybrid assay consisting of an additional 25 MRTU library reporting the activity of nuclear receptor super-family members. […] These assays were performed by Attagene Inc. (Morrisville NC) under contract to EPA.
In addition to the cis-acting reporter genes (CIS), a modification of the approach was used to generate a trans-system (TRANS) with a mammalian one-hybrid assay consisting of an additional 25 MRTU library reporting the activity of nuclear receptor super-family members. […] Chemicals were then tested in the CIS and TRANS assays at seven concentrations starting at the MTC and followed by three-fold serial dilutions. These assays were performed by Attagene Inc. (Morrisville NC) under contract to EPA. Detailed description of the methods, data and analysis methods for this dataset will be presented in a separate publication.

Rat Liver [1] = conditions: chronic study, rat liver; ref ToxRefDB; cited from earlier work
ABCB1 = assay: CLZD_ABCB1: Change in expression of ABCB1 (primary human hepatocytes); assay type: cell-based; conditions: 24 hr
Procedure, shortened: (§3)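 Primary human hepatocytes exposed to 5 concentrations (0.004-40 µM) for 6, 24 or 48 hr; transcript levels measured by multiplexed quantitative nuclease protection assay. Markers of nuclear receptor pathways: CYP1A1 (AhR), CYP2B6 and ABCB1 (CAR), CYP3A4 (PXR).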

CYP1A1 = assay: CLZD_CYP1A1: Change in expression of CYP1A1 (primary human hepatocytes); assay type: cell-based; conditions: 24 hr
Procedure, shortened: as §3

CYP2B6 = assay: CLZD_CYP2B6: Change in expression of CYP2B6 (primary human hepatocytes); assay type: cell-based; conditions: 24 hr
Procedure, shortened: as §3

ABCB11 = assay: CLZD_ABCB11: Change in expression of ABCB11 (primary human hepatocytes); assay type: cell-based; conditions: 24 hr
Experimental: This is a collection of multiplexed gene expression assays focused on Phase I and II xenobiotic metabolizing enzymes and transporters. Human primary cell cultures were treated with chemicals at 5 concentrations (0.004-40 [drawing 42] M) for 6, 24 and 48 hr. Concentration- and time-response profiles of chemicals were measured by the expression of key nuclear receptor target genes, activities of CYP1A enzymes (EROD), and cell morphology. Fourteen gene targets were monitored by quantitative nuclease protection assay including: six representative cytochrome P-450 genes, four hepatic transporters, three Phase II conjugating enzymes, and one endogenous metabolism gene involved in cholesterol synthesis. The target genes associated with nuclear receptor pathways are as follows: [drawing 43] and [drawing 44] with [drawing 45]; [drawing 46] , [drawing 47] , [drawing 48] , [drawing 49] , [drawing 50] and [drawing 51] with [drawing 52]; [drawing 53] , [drawing 54] , [drawing 55] and [drawing 56] with [drawing 57]; [drawing 58] with [drawing 59]; and [drawing 60] with [drawing 61] . Assays were run in primary human hepatocyte cultures by CellzDirect Invitrogen Inc. (Durham, NC), in collaboration with EPA.
Multiplexed Gene Expression in Human Primary Hepatocytes: This is a collection of multiplexed gene expression assays focused on Phase I and II metabolic enzymes and transporters. […] Fourteen gene targets were monitored by quantitative nuclease protection assay: six representative cytochrome P450 genes, four hepatic transporters, three Phase II conjugating enzymes, and one endogenous metabolism gene involved in cholesterol synthesis. Cells were exposed at 5 concentrations (0.004-40 µM) for 6, 24 or 48 hr. Gene targets are sentinels for five nuclear receptor signaling pathways: AhR, CAR, PXR, FXR, and PPARα. All gene are associated with nuclear receptor pathways: CYP1A1 and CYP1A2 with AHR; ABCB1, ABCG2, CYP2B6, CYP2C9, CYP2C19 and UGT1A1 with CAR; CYP3A4, GSTA2, SLCO1B1 and SULT2A1 with PXR; HMGCS2 with PPARA; and ABCB11 with FXR. […] Detailed description of the methods, data and analysis methods for this dataset will be presented in a separate publication.

Rat Liver [2] = conditions: chronic study, rat liver; ref ToxRefDB; cited from earlier work; remark: listed apart in the source
Rat Liver [3] = conditions: chronic study, rat liver; ref ToxRefDB; cited from earlier work; remark: listed apart in the source
[4] = target: T5, PPARG (peroxisome proliferator-activated receptor gamma) (Homo sapiens, UniProt P37231); assay: ATG_PPARg_TRANS: Factorial reporter gene assay (HepG2); assay type: cell-based; conditions: HepG2 reporter
T5 construct: expressed in transfected cells; host or cells: HepG2
T5 sequence (P37231 1-505): T1 sequence (P37231 1-505)
Procedure, shortened: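 CIS (PXRE): HepG2 transfected with 48 TF-binding-site MRTU library. TRANS (ERRg, FXR, PPARg): one-hybrid format, extra 25 nuclear-receptor MRTUs. 7 concs, top = MTC, 3-fold serial dilution.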

CYP1A2 = assay: CLZD_CYP1A2: Change in expression of CYP1A2 (primary human hepatocytes); assay type: cell-based; conditions: 24 hr
Procedure, shortened: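 Chemicals are tested in human hepatocyte primary cultures over 0.004-40 µM (5 concentrations) for 6, 24 or 48 hr, and concentration- and time-dependent transcript changes are read by quantitative nuclease protection assay.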

RXRa (RXRA) = target: T6, RXRa (RXRA) (Homo sapiens, UniProt P19793); assay: NCGC_RXRa_Agonist: GAL4 BLAM Reporter gene assay: RXRa; assay type: cell-based; conditions: agonist mode
T6 sequence (P19793 227-462 limits assumed): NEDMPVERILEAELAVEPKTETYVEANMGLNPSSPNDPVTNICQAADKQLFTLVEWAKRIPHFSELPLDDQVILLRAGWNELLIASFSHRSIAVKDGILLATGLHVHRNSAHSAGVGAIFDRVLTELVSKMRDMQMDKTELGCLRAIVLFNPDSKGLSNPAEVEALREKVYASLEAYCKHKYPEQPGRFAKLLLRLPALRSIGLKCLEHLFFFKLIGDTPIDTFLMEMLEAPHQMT
Experimental: as §1, §2

SMILES | NCGC_PPARg_Agonist (PPARg (PPARG)) | NCGC_PXR_Agonist_human (PXR Human (NR1I2)) | NVS_NR_hPXR (PXR (NR1I2)) | ATG_PBREM_CIS (CAR (NR1I3)) | CHR_Rat_Liver_1_AnyLesion (Rat Liver [1]) | CLZD_ABCB1_24 (ABCB1) | CLZD_CYP1A1_24 (CYP1A1) | CLZD_CYP2B6_24 (CYP2B6) | CLZD_ABCB11_24 (ABCB11) | CHR_Rat_Liver_3_NeoplasticLesion (Rat Liver [2]) | CHR_Rat_Liver_2_PreneoplasticLesion (Rat Liver [3]) | ATG_PPARg_TRANS [4] | CLZD_CYP1A2_24 (CYP1A2) | NCGC_RXRa_Agonist (RXRa (RXRA))
N#CSCSc1nc2ccccc2s1 [r289] | 4.706 | 4.409 | 6.169 | – | – | – | – | – | – | – | – | – | – | –
C=C(C)[C@H]1Cc2c(ccc3c2O[C@@H]2COc4cc(OC)c(OC)cc4[C@@H]2C3=O)O1 [r282] | – | 4.77 | – | 6.638 | 0 | 4.54 | 5.398 | 5.235 | 5.217 | 0 | 0 | – | – | –
Fc1ccc(Oc2ccnc3cc(Cl)cc(Cl)c23)cc1 [r277] | 5.174 | – | – | – | 0 | – | 5.128 | 4.999 | – | 0 | 0 | 5.18 | 5.172 | –
OCCOc1ccccc1 [r243] | – | – | – | – | – | – | – | – | – | – | – | – | – | 4.774
